Columns and labels:
[1] = system: human adrenal gland section expressing aldosterone-producing adenoma; test: In vitro autoradiography using human adrenal adenoma; type: binding; details: section of FIG. 17(b)
Method in brief: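 Autoradiography readout: PSL in equal-sized ROIs over adenoma (B2) and normal adrenal cortex (B1), expressed as B2/B1 and decay-corrected using half-life, applied activity and plate contact time. Tissue was surgically excised human adrenal, frozen and cut at 7 μm, incubated 10 min with 5-33 kBq/mL tracer in BSA-containing PBS, then imaged after 16-20 h exposure.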

[2] = In vivo kinetics experiment (radioactivity distribution); parameters: species or system Wistar male rat; details: rat i.v., mean ± SD
Method in brief: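 Tissue radioactivity (% ID/g) and adrenal-to-blood, liver, kidney, small intestine, muscle and fat ratios determined at 10, 30 and 60 min post-dose. Tracers (approximately 1 to 3.7 MBq, saline with 1 w/v % ascorbic acid) injected i.v. into caudal vein of anesthetized 9-week male Wistar rats; organs excised, weighed, counted.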

[3] = Plasma stability evaluation (TLC analysis); type: in vitro ADME; details: 37° C., 60 minutes, TLC analysis
Method in brief: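 TLC analysis, using each compound's synthesis conditions, judged stability after methanol was added and samples were centrifuged to remove protein. Beforehand, each tracer had spent 60 minutes at 37° C in pooled heparinized normal human plasma.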

Cn1c(-c2cncc(Cn3ccnc3)c2)nc2ccc([123I])cc21 [[^123I] 607, 2-[5-{(1H-imidazol-1-yl)methyl}pyridin-3-yl]-6-[^123I]iodo-1-methyl-1H-benzo[d]imidazole]
B2/B1 accumulation ratio [1]: 0.90 | B2 (PSL value, aldosterone-producing adenoma) ([1]; site 71b): 5332 | B1 (PSL value, normal adrenal cortex) ([1]; site 72b): 5945 | Adrenal gland/blood ratio of radioactivity accumulation ([2]; 10 min after administration): 64.15 ± 4.03 | Adrenal gland/fat ratio of radioactivity accumulation ([2]; 10 min after administration): 92.36 ± 15.53 | Adrenal gland/kidney ratio of radioactivity accumulation ([2]; 10 min after administration): 5.73 ± 1.00 | Adrenal gland/liver ratio of radioactivity accumulation ([2]; 10 min after administration): 3.85 ± 0.67 | Adrenal gland/muscle ratio of radioactivity accumulation ([2]; 10 min after administration): 64.58 ± 8.21 | Adrenal gland/small intestine ratio of radioactivity accumulation ([2]; 10 min after administration): 3.95 ± 0.40 | Radioactivity distribution Adrenal gland ([2]; 10 min after administration): 11.13 ± 0.88 % ID/g | Radioactivity distribution Bladder (including urine) ([2]; 10 min after administration): 1.20 ± 0.71 % ID/g | Radioactivity distribution Blood ([2]; 10 min after administration): 0.17 ± 0.02 % ID/g | Radioactivity distribution Fat ([2]; 10 min after administration): 0.12 ± 0.02 % ID/g | Radioactivity distribution Femur ([2]; 10 min after administration): 0.86 ± 0.02 % ID/g | Radioactivity distribution Heart ([2]; 10 min after administration): 0.66 ± 0.03 % ID/g | Radioactivity distribution Kidney ([2]; 10 min after administration): 1.96 ± 0.19 % ID/g | Radioactivity distribution Large intestine ([2]; 10 min after administration): 0.12 ± 0.02 % ID/g | Radioactivity distribution Liver ([2]; 10 min after administration): 2.93 ± 0.40 % ID/g | Radioactivity distribution Lung ([2]; 10 min after administration): 0.90 ± 0.07 % ID/g | Radioactivity distribution Muscle (lower limbs) ([2]; 10 min after administration): 0.17 ± 0.02 % ID/g | Radioactivity distribution Remaining whole body ([2]; 10 min after administration): 0.27 ± 0.03 % ID/g | Radioactivity distribution Small intestine ([2]; 10 min after administration): 2.82 ± 0.12 % ID/g | Radioactivity distribution Spleen ([2]; 10 min after administration): 4.93 ± 0.56 % ID/g | Radioactivity distribution Stomach ([2]; 10 min after administration): 0.88 ± 0.20 % ID/g | Radioactivity distribution Testis ([2]; 10 min after administration): 0.06 ± 0.01 % ID/g | Radioactivity distribution Whole brain ([2]; 10 min after administration): 0.03 ± 0.00 % ID/g | Adrenal gland/blood ratio of radioactivity accumulation ([2]; 30 min after administration): 163.89 ± 22.78 | Adrenal gland/fat ratio of radioactivity accumulation ([2]; 30 min after administration): 109.60 ± 14.02 | Adrenal gland/kidney ratio of radioactivity accumulation ([2]; 30 min after administration): 12.63 ± 4.53 | Adrenal gland/liver ratio of radioactivity accumulation ([2]; 30 min after administration): 15.55 ± 2.37 | Adrenal gland/muscle ratio of radioactivity accumulation ([2]; 30 min after administration): 114.11 ± 13.20 | Adrenal gland/small intestine ratio of radioactivity accumulation ([2]; 30 min after administration): 2.89 ± 0.23 | Radioactivity distribution Adrenal gland ([2]; 30 min after administration): 14.61 ± 1.60 % ID/g | Radioactivity distribution Bladder (including urine) ([2]; 30 min after administration): 2.79 ± 0.51 % ID/g | Radioactivity distribution Blood ([2]; 30 min after administration): 0.09 ± 0.00 % ID/g | Radioactivity distribution Fat ([2]; 30 min after administration): 0.13 ± 0.01 % ID/g | Radioactivity distribution Femur ([2]; 30 min after administration): 0.98 ± 0.16 % ID/g | Radioactivity distribution Heart ([2]; 30 min after administration): 0.54 ± 0.05 % ID/g | Radioactivity distribution Kidney ([2]; 30 min after administration): 1.24 ± 0.36 % ID/g | Radioactivity distribution Large intestine ([2]; 30 min after administration): 0.12 ± 0.01 % ID/g | Radioactivity distribution Liver ([2]; 30 min after administration): 0.94 ± 0.06 % ID/g | Radioactivity distribution Lung ([2]; 30 min after administration): 0.72 ± 0.05 % ID/g | Radioactivity distribution Muscle (lower limbs) ([2]; 30 min after administration): 0.13 ± 0.00 % ID/g | Radioactivity distribution Remaining whole body ([2]; 30 min after administration): 0.27 ± 0.03 % ID/g | Radioactivity distribution Small intestine ([2]; 30 min after administration): 5.06 ± 0.42 % ID/g | Radioactivity distribution Spleen ([2]; 30 min after administration): 6.69 ± 1.24 % ID/g | Radioactivity distribution Stomach ([2]; 30 min after administration): 1.17 ± 0.29 % ID/g | Radioactivity distribution Testis ([2]; 30 min after administration): 0.09 ± 0.02 % ID/g | Radioactivity distribution Whole brain ([2]; 30 min after administration): 0.02 ± 0.00 % ID/g | Adrenal gland/blood ratio of radioactivity accumulation ([2]; 60 min after administration): 241.20 ± 39.48 | Adrenal gland/fat ratio of radioactivity accumulation ([2]; 60 min after administration): 194.91 ± 44.02 | Adrenal gland/kidney ratio of radioactivity accumulation ([2]; 60 min after administration): 18.18 ± 3.94 | Adrenal gland/liver ratio of radioactivity accumulation ([2]; 60 min after administration): 27.59 ± 4.15 | Adrenal gland/muscle ratio of radioactivity accumulation ([2]; 60 min after administration): 177.15 ± 43.41 | Adrenal gland/small intestine ratio of radioactivity accumulation ([2]; 60 min after administration): 3.39 ± 0.53 | Radioactivity distribution Adrenal gland ([2]; 60 min after administration): 18.47 ± 2.05 % ID/g | Radioactivity distribution Bladder (including urine) ([2]; 60 min after administration): 2.99 ± 1.26 % ID/g | Radioactivity distribution Blood ([2]; 60 min after administration): 0.08 ± 0.01 % ID/g | Radioactivity distribution Fat ([2]; 60 min after administration): 0.10 ± 0.02 % ID/g | Radioactivity distribution Femur ([2]; 60 min after administration): 1.17 ± 0.10 % ID/g | Radioactivity distribution Heart ([2]; 60 min after administration): 0.43 ± 0.08 % ID/g | Radioactivity distribution Kidney ([2]; 60 min after administration): 1.04 ± 0.19 % ID/g | Radioactivity distribution Large intestine ([2]; 60 min after administration): 0.16 ± 0.03 % ID/g | Radioactivity distribution Liver ([2]; 60 min after administration): 0.67 ± 0.04 % ID/g | Radioactivity distribution Lung ([2]; 60 min after administration): 0.65 ± 0.15 % ID/g | Radioactivity distribution Muscle (lower limbs) ([2]; 60 min after administration): 0.11 ± 0.02 % ID/g | Radioactivity distribution Remaining whole body ([2]; 60 min after administration): 0.26 ± 0.01 % ID/g | Radioactivity distribution Small intestine ([2]; 60 min after administration): 5.48 ± 0.49 % ID/g | Radioactivity distribution Spleen ([2]; 60 min after administration): 6.95 ± 0.95 % ID/g | Radioactivity distribution Stomach ([2]; 60 min after administration): 1.52 ± 0.61 % ID/g | Radioactivity distribution Testis ([2]; 60 min after administration): 0.11 ± 0.02 % ID/g | Radioactivity distribution Whole brain ([2]; 60 min after administration): 0.02 ± 0.00 % ID/g | Radiochemical purity after incubation in human plasma [3]: 84%
